Experimental data published in ChEMBL document CHEMBL3232982, “Cytotoxic properties of D-gluco-, D-galacto- and D-manno-configured 2-amino-2-deoxy-glycerolipids against epithelial cancer cell lines and BT-474 breast cancer stem cells” (2014).
Activity calls are given as the source filed them. No cut-off for these calls is given here.

Legend:
[1] = tested on: BT-474; test: Cytotoxicity against human BT474 cells assessed as formation of spheroids with jagged rough edges at 10 to 20 uM after 6 days by phase contrast microscopy relative to untreated control; format: functional, cell-based
[2] = tested on: BT-474; test: Cytotoxicity against human BT474 cells assessed as cell viability at 20 uM after 6 days by MTS assay relative to untreated control; format: functional; conditions: BT-474, 144 h, read-out: Activity
[3] = tested on: BT-474; test: Cytotoxicity against tumorspheres of human BT474 cells assessed as disintegration of tumorspheres at 5 to 20 uM after 6 days by phase contrast microscopy relative to untreated control; format: functional, cell-based
[4] = tested on: BT-474; test: Cytotoxicity against tumorspheres of human BT474 cells assessed as inhibition of cell viability at 20 uM after 6 days by MTS assay relative to untreated control; format: functional; conditions: BT-474, 144 h
[5] = tested on: BT-474; test: Cytotoxicity against tumorspheres of human BT474 cells assessed as cell viability at 30 uM after 6 days by MTS assay relative to untreated control; format: functional; conditions: BT-474, 144 h, read-out: Activity
[6] = tested on: BT-474; test: Cytotoxicity against human BT474 cells assessed as reduction cell viability after 48 hrs by MTS assay; format: functional; conditions: BT-474, 48 h
[7] = Cytotoxicity against human JIMT1 cells assessed as reduction cell viability after 48 hrs by MTS assay; format: functional; conditions: JIMT-1, 48 h
[8] = tested on: BT-549; test: Cytotoxicity against human BT549 cells assessed as reduction cell viability after 48 hrs by MTS assay; format: functional; conditions: BT-549, 48 h
[9] = Cytotoxicity against human MIAPaCa2 cells assessed as reduction cell viability after 48 hrs by MTS assay; format: functional; conditions: MIA PaCa-2, 48 h
[10] = tested on: DU-145; test: Cytotoxicity against human DU145 cells assessed as reduction cell viability after 48 hrs by MTS assay; format: functional; conditions: DU-145, 48 h
[11] = tested on: PC-3; test: Cytotoxicity against human PC3 cells assessed as reduction cell viability after 48 hrs by MTS assay; format: functional; conditions: PC-3, 48 h
[12] = tested on: BT-474; test: Cytotoxicity against human BT474 cells assessed as inhibition of spheroids formation at 10 to 20 uM after 6 days by phase contrast microscopy relative to untreated control; format: functional, cell-based
[13] = tested on: BT-474; test: Cytotoxicity against human BT474 cells assessed as inhibition of cell viability at 10 to 20 uM after 6 days by MTS assay relative to untreated control; format: functional, cell-based
[14] = tested on: BT-474; test: Cytotoxicity against tumorspheres of human BT474 cells assessed as inhibition of cell viability at 10 to 20 uM after 6 days by MTS assay relative to untreated control; format: functional, cell-based

Row | Compound | Activity [1] | viability at 20 µM [2] | Activity [3] | inhibition at 20 µM [4] | viability at 30 µM [5] | CC50 [6] | CC50 [7] | CC50 [8] | CC50 [9] | CC50 [10] | CC50 [11] | inhibition [12] | inhibition [13] | inhibition [14]
1 | CCCCCCCCCCCCCCCCCCOCC(COP(=O)([O-])OCC[N+](C)(C)C)OC (centres undefined) [EDELFOSINE] | Active | 55% | inactive | 30% | 45% | – | – | – | – | – | – | – | – | –
2 | CCCCCCCCCCCCCCCCOCC(CS[C@H]1O[C@H](CO)[C@H](O)[C@H](O)[C@H]1N)OC (some centres undefined) | – | – | – | – | – | 24.4 µM | 19.1 µM | 18.3 µM | 18.8 µM | 17.2 µM | 15 µM | – | – | –
3 | CCCCCCCCCCCCCCCCOCC(CO[C@H]1O[C@H](CO)[C@@H](O)[C@H](O)[C@H]1N)OC (some centres undefined) | – | – | Active | – | – | 6.2 µM | 6 µM | 7 µM | 7 µM | 7 µM | 10.5 µM | Active | Active | Active
4 | CCCCCCCCCCCCCCCCOCC(CS[C@@H]1O[C@H](CO)[C@H](O)[C@H](O)[C@H]1N)OC (some centres undefined) | – | – | – | – | – | > 30 µM | 15.5 µM | 22.2 µM | 20.2 µM | 18.8 µM | 24.3 µM | – | – | –
5 | CCCCCCCCCCCCCCCCOCC(CO[C@H]1O[C@H](CO)[C@H](O)[C@H](O)[C@H]1N)OC (some centres undefined) | – | – | Active | – | – | 6.2 µM | 4.5 µM | 6.3 µM | 4.4 µM | 4.7 µM | 8 µM | Active | Active | Active
6 | CCCCCCCCCCCCCCCCOCC(CO[C@@H]1O[C@H](CO)[C@@H](O)[C@H](O)[C@H]1N)OC (some centres undefined) | – | – | Active | – | – | 8 µM | 9 µM | 13 µM | 10 µM | 10 µM | 13.5 µM | Active | Active | –
7 | CCCCCCCCCCCCCCCCOCC(CO[C@H]1O[C@H](CO)[C@@H](O)[C@H](O)[C@@H]1N)OC (some centres undefined) | – | – | – | – | – | > 30 µM | > 30 µM | > 30 µM | > 30 µM | > 30 µM | > 30 µM | – | – | –
8 | CCCCCCCCCCCCCCCCOCC(CO[C@@H]1O[C@H](CO)[C@H](O)[C@H](O)[C@H]1N)OC (some centres undefined) | – | – | – | – | – | > 30 µM | 24.8 µM | 27.6 µM | 25.8 µM | 19.5 µM | > 30 µM | – | – | –
9 | CCCCCCCCCCCCCCN [TETRADECYLAMINE] | – | – | – | – | – | 27.1 µM | 24.8 µM | 21.7 µM | 18.2 µM | 16.8 µM | 24.6 µM | – | – | –
